# Target: ATR (Homo sapiens (Human), UniProt Q13535)
# Assay: Cellular Assay - ATR, phosphorylation of Chk1 (Ser 345) in HT29 cells after 4NQO (Test (b))
# Assay type: cell-based
# Conditions: cell assay Test (b); pChk1 Ser345 in HT29 cells, 3 μM 4NQO; arithmetic mean
# Description: ATM and ATR have distinct and overlapping responses to DNA damage. They must participate together and responses must be co-ordinated. Both pathways may be activated by ionising radiation, however only ATR is activated by UV. Since UV treatment is not practical for use in a high throughput cell assay, the UV mimetic 4NQ0 (Sigma) was chosen to activate the ATR DNA damage response pathway.
# Chk1, a downstream protein kinase of ATR, plays a key role in DNA damage checkpoint control. Activation of Chk1 involves phosphorylation of Ser317 and Ser345 (regarded as the preferential target for phosphorylation/activation by ATR). […] Compounds dose ranges were created by diluting in 100% DMSO and then further into assay media (EMEM, 10% FCS, 1% glutamine) using a Labcyte Echo Acoustic dispensing instrument. Cells were plated in 384 well Costar plates at 9×10^4 cells per ml in 40 μL EMEM, 10% FCS, 1% glutamine and grown for 24 hrs. Following addition of compound the cells were incubated for 60 minutes. A final concentration of 3 μM 4NQ0 (prepared in 100% DMSO) was then added using the Labcyte Echo and the cells incubated for a further 60mins. The cells are then fixed by adding 40 μL 3.7% v/v formaldehyde solution for 20 minutes. After removal of fix, cells were washed with PBS and permeabilised in 40 μL of PBS containing 0.1% Triton™ X-100. Cells are then washed and 15 μl primary antibody solution (pChk1 Ser345) added and the plates incubated at 4° C. overnight. […] The plates are washed and left in 40 μl PBS. Plates were then read on an ArrayS can Vti instrument to determine staining intensities, and dose responses were obtained and used to determine the IC50 values for the compounds.
# ATR, sequence (Q13535 whole entry): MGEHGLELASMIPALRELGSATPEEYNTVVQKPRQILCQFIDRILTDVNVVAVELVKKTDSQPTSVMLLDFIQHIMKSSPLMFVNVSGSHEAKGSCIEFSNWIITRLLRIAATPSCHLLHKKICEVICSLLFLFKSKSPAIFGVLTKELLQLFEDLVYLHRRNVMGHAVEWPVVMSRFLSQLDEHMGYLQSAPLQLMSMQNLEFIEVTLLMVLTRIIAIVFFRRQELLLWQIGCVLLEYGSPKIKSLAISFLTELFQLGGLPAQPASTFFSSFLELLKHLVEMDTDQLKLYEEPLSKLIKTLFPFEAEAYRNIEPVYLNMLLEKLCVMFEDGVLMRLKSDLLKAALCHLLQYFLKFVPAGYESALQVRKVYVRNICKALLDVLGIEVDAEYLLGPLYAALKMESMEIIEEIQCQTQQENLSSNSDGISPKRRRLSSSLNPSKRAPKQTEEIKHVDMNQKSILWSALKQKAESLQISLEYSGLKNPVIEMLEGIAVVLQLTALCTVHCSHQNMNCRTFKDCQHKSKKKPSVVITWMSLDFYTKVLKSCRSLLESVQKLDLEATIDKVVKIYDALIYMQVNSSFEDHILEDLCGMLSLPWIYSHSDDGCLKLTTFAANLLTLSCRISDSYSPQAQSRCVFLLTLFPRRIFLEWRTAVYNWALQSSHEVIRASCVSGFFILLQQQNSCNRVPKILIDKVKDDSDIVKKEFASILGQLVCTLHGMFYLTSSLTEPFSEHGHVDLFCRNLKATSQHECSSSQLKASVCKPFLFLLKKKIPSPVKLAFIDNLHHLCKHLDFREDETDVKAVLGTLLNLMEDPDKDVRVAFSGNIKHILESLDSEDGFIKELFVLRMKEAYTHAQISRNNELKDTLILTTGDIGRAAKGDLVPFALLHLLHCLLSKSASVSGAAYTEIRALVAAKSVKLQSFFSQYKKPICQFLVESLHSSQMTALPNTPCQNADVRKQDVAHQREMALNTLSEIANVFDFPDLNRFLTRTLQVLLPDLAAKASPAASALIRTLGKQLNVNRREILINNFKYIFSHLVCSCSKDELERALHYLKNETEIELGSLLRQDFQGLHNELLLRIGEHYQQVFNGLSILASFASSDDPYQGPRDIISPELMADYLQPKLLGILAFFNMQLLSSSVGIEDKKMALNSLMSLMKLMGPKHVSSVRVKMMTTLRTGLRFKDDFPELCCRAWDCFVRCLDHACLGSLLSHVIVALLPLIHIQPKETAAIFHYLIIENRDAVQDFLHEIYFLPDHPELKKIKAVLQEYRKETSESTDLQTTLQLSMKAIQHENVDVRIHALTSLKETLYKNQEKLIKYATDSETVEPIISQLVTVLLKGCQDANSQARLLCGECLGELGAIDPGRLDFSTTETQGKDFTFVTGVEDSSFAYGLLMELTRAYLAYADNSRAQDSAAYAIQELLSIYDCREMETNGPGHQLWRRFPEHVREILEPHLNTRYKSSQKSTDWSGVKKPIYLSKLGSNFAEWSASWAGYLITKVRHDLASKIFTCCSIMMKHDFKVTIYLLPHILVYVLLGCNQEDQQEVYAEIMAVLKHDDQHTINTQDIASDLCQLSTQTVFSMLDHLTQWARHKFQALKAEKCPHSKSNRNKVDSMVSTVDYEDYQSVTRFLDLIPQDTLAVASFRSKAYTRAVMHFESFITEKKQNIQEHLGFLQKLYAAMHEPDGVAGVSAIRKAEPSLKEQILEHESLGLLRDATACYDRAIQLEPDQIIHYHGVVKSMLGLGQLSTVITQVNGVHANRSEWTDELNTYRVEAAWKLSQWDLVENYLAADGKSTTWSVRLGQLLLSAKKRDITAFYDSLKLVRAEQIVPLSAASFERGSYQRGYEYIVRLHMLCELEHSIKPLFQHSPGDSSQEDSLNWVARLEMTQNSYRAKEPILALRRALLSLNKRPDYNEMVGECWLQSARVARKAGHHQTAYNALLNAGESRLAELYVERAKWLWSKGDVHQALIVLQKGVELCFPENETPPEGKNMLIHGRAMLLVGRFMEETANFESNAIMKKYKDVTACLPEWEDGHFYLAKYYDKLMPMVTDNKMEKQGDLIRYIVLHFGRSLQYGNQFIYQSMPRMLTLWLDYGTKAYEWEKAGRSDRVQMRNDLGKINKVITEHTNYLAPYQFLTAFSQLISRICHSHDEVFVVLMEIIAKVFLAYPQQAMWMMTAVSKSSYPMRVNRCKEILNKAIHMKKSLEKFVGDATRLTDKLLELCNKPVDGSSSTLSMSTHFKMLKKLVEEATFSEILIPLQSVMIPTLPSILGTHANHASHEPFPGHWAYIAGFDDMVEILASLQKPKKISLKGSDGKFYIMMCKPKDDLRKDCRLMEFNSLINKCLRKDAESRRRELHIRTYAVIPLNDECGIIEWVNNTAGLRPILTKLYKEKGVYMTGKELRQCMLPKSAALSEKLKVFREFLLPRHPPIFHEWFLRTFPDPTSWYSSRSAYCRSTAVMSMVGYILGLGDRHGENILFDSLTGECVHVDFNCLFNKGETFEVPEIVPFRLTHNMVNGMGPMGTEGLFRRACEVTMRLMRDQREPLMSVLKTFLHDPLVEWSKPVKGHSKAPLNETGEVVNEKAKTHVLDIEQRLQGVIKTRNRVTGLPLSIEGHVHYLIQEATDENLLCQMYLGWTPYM
# ATR, sequence (Q8WXE1 whole entry partner): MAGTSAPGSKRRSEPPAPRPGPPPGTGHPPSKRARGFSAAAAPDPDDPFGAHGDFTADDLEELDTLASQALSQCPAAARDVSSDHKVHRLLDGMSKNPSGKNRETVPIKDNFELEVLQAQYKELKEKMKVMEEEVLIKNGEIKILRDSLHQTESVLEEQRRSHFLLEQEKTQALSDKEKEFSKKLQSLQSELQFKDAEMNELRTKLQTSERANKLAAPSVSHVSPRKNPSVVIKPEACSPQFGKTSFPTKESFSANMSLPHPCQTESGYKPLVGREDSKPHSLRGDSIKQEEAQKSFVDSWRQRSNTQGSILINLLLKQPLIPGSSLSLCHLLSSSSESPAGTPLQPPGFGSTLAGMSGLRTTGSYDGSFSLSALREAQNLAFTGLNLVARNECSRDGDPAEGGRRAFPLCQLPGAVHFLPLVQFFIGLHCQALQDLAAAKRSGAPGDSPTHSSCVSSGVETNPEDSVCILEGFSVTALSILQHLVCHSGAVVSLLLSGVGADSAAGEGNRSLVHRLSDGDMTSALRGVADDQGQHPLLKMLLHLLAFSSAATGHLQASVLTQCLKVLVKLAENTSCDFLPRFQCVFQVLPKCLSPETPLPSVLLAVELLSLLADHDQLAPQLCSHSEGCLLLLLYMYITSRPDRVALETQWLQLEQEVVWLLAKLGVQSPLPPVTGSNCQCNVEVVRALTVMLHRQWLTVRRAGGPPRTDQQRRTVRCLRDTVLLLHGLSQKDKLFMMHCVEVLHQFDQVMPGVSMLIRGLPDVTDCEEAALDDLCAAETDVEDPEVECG
row,SMILES,IC50 [nM]
1,"CNc1nc2ccc(F)cc2n1-c1nc(N2CCOC[C@H]2C)cc(C(C)(C)[S@](C)(=N)=O)n1 [Example 5.03, 6-Fluoro-N-methyl-1-{4-[1-methyl-1-((R)—S-methylsulfonimidoyl)ethyl]-6-[(3R)-3-methylmorpholin-4-yl]pyrimidin-2-yl}-1H-benzimidazol-2-amine]",33.1
2,"C[C@@H]1COCCN1c1cc(C2([S@](C)(=N)=O)CC2)nc(-n2c(N)nc3ccccc32)n1 [Example 2.07, 1-{4-[(3R)-3-Methylmorpholin-4-yl]-6-[1-((R)—S-methylsulfonimidoyl)cyclopropyl]pyrimidin-2-yl}-1H-benzimidazol-2-amine]",2.58
3,"CNc1nc2cc(F)ccc2n1-c1nc(N2CCOC[C@H]2C)cc(C2([S@](C)(=N)=O)CC2)n1 [Example 5.08, 5-fluoro-N-methyl-1-{4-[(3R)-3-methylmorpholin-4-yl]-6-[1-((R)—S-methylsulfonimidoyl)cyclopropyl]pyrimidin-2-yl}-1H-benzimidazol-2-amine]",10.1
4,"CNc1nc2ccc(F)cc2n1-c1nc(N2CCOC[C@H]2C)cc(C(C)(C)[S@@](C)(=N)=O)n1 [Example 5.06, 6-fluoro-N-methyl-1-{4-[1-methyl-1-((S)—S-methylsulfonimidoyl)ethyl]-6-[(3R)-3-methylmorpholin-4-yl]pyrimidin-2-yl}-1H-benzimidazol-2-amine]",44.4
5,"CNc1nc2c(F)cccc2n1-c1nc(N2CCOC[C@H]2C)cc(C(C)(C)[S@@](C)(=N)=O)n1 [Example 5.01, 4-Fluoro-N-methyl-1-{4-[1-methyl-1-((S)—S-methylsulfonimidoyl)ethyl]-6-[(3R)-3-methylmorpholin-4-yl]pyrimidin-2-yl}-1H-benzimidazol-2-amine]",62.5
6,C[C@@H]1COCCN1c1cc(C2([S@@](C)(=N)=O)CCOCC2)nc(-c2cccc3[nH]ccc23)n1 [Example 4.03],51.1
7,"CNc1nc2c(F)cccc2n1-c1nc(N2CCOC[C@H]2C)cc(C2([S@](C)(=N)=O)CC2)n1 [Example 2.09, 4-Fluoro-N-methyl-1-{4-[(3R)-3-methylmorpholin-4-yl]-6-[1-((R)—S-methylsulfonimidoyl)cyclopropyl]pyrimidin-2-yl}-1H-benzimidazol-2-amine]",159
8,"CNc1nc2cc(F)ccc2n1-c1nc(N2CCOC[C@H]2C)cc(C(C)(C)[S@](C)(=N)=O)n1 [Example 5.04, 5-Fluoro-N-methyl-1-{4-[1-methyl-1-((R)—S-methylsulfonimidoyl)ethyl]-6-[(3R)-3-methylmorpholin-4-yl]pyrimidin-2-yl}-1H-benzimidazol-2-amine]",16.2
9,"C[C@@H]1COCCN1c1cc(C2([S@](C)(=N)=O)CC2)nc(-c2cccc3[nH]ccc23)n1 [Example 2.05, 4-{4-[(3R)-3-Methylmorpholin-4-yl]-6-[1-((R)—S-methylsulfonimidoyl)cyclopropyl]pyrimidin-2-yl}-1H-indole]",75.8
10,"CNc1nc2c(F)cccc2n1-c1nc(N2CCOC[C@H]2C)cc(C(C)(C)[S@](C)(=N)=O)n1 [Example 5.02, 4-fluoro-N-methyl-1-{4-[1-methyl-1-((R)—S-methylsulfonimidoyl)ethyl]-6-[(3R)-3-methylmorpholin-4-yl]pyrimidin-2-yl}-1H-benzimidazol-2-amine]",70.8
11,"C[C@@H]1COCCN1c1cc(C2([S@@](C)(=N)=O)CC2)nc(-c2cccc3[nH]ccc23)n1 [Example 2.06, 4-{4-[(3R)-3-methylmorpholin-4-yl]-6-[1-((S)—S-methylsulfonimidoyl)cyclopropyl]pyrimidin-2-yl}-1H-indole]",12.9
12,"CNc1nc2ccccc2n1-c1nc(N2CCOC[C@H]2C)cc(C2([S@@](C)(=N)=O)CCOCC2)n1 [Example 4.01, N-Methyl-1-{4-[(3R)-3-methylmorpholin-4-yl]-6-[4-((S)—S-methylsulfonimidoyl)tetrahydro-2H-pyran-4-yl]pyrimidin-2-yl}-1H-benzimidazol-2-amine]",53.6
13,"CNc1nc2c(F)cccc2n1-c1nc(N2CCOC[C@H]2C)cc(C2([S@@](C)(=N)=O)CC2)n1 [Example 2.10, 4-fluoro-N-methyl-{4-[(3R)-3-methylmorpholin-4-yl]-6-[1-((S)—S-methylsulfonimidoyl)cyclopropyl]pyrimidin-2-yl}-1H-benzimidazol-2-amine]",109
14,"CNc1nc2cc(F)ccc2n1-c1nc(N2CCOC[C@H]2C)cc(C(C)(C)[S@@](C)(=N)=O)n1 [Example 5.05, 5-Fluoro-N-methyl-1-{4-[1-methyl-1-((S)—S-methylsulfonimidoyl)ethyl]-6-[(3R)-3-methylmorpholin-4-yl]pyrimidin-2-yl}-1H-benzimidazol-2-amine]",18.3
15,"CNc1nc2ccccc2n1-c1nc(N2CCOC[C@H]2C)cc(C(C)(C)[S@@](C)(=N)=O)n1 [Example 3.01, N-methyl-1-{4-[1-methyl-1-((S)—S-methylsulfonimidoyl)ethyl]-6-[(3R)-3-methylmorpholin-4-yl]pyrimidin-2-yl}-1H-benzimidazol-2-amine]",12.8
16,"CNc1nc2ccccc2n1-c1nc(N2CCOC[C@H]2C)cc(C2([S@](C)(=N)=O)CCOCC2)n1 [Example 4.02, N-methyl-1-{4-[(3R)-3-methylmorpholin-4-yl]-6-[4-((R)—S-methylsulfonimidoyl)tetrahydro-2H-pyran-4-yl]pyrimidin-2-yl}-1H-benzimidazol-2-amine]",39.8
17,"C[C@@H]1COCCN1c1cc(C2([S@@](C)(=N)=O)CC2)nc(-n2c(N)nc3ccccc32)n1 [Example 2.08, 1-{4-[(3R)-3-methylmorpholin-4-yl]-6-[1-((S)—S-methylsulfonimidoyl)cyclopropyl]pyrimidin-2-yl}-1H-benzimidazol-2-amine]",2.76
18,"CNc1nc2cc(F)ccc2n1-c1nc(N2CCOC[C@H]2C)cc(C2([S@@](C)(=N)=O)CC2)n1 [Example 5.09, 5-fluoro-N-methyl-1-{4-[(3R)-3-methylmorpholin-4-yl]-6-[1-((S)—S-methylsulfonimidoyl)cyclopropyl]pyrimidin-2-yl}-1H-benzimidazol-2-amine]",18
19,"CNc1nc2ccc(F)cc2n1-c1nc(N2CCOC[C@H]2C)cc(C2([S@](C)(=N)=O)CC2)n1 [Example 5.07, 6-Fluoro-N-methyl-1-{4-[(3R)-3-methylmorpholin-4-yl]-6-[1-((R)—S-methylsulfonimidoyl)cyclopropyl]pyrimidin-2-yl}-1H-benzimidazol-2-amine]",29
20,"CNc1nc2ccc(F)cc2n1-c1nc(N2CCOC[C@H]2C)cc(C2([S@@](C)(=N)=O)CC2)n1 [Example 5.10, 6-fluoro-N-methyl-1-{4-[(3R)-3-methylmorpholin-4-yl]-6-[1-((S)—S-methylsulfonimidoyl)cyclopropyl]pyrimidin-2-yl}-1H-benzimidazol-2-amine]",47
21,"CNc1nc2ccccc2n1-c1nc(N2CCOC[C@H]2C)cc(C(C)(C)[S@](C)(=N)=O)n1 [Example 3.02, N-methyl-1-{4-[1-methyl-1-((R)—S-methylsulfonimidoyl)ethyl]-6-[(3R)-3-methylmorpholin-4-yl]pyrimidin-2-yl}-1H-benzimidazol-2-amine]",8.43

# — patent publication US8552004B2, “Chemical compounds” (AstraZeneca AB, priority 2010, dated 2013)
